Where two headings read alike, the source gives them in different places.
Tests used:
Format in all cases: cell-based
CDK9 = biological target: T1, CDK9 (Homo sapiens, UniProt P50750); experiment: HiBit Assay Protocol for CDK9 (HIBIT protein quantification, degradation); conditions: HEK293-CDK9-Hibit cells, compound treatment for 6 hours; for Dmax: read-out: CDK9 HIBIT Protein Quantification Maximum
T1 construct: host or cells: HEK293-CDK9-Hibit
Protocol: HiBit Assay Protocol for CDK9
• 1. The culture medium for HEK293-CDK9-Hibit cell was prepared using DMEM with 10% FBS. • 2. Cells were cultivated in T-75 flasks in a cell culture incubator set at 37° C., 5% CO2, 95% relative humidity. Cells were allowed to reach 80-90% confluence before detaching and splitting. • 3. Cultivated cells were rinsed in T-75 flasks with 5 mL PBS. Aspirated off. Added 1.5 mL trypsin, and incubated the cells at 37° C. for approximately 5 minutes or until the cells detached and floated. • 4. Trypsin was inactivated by adding excess serum containing medium. • 5. Cells were harvested from flask into cell culture medium and then the cell number was counted. HEK293-CDK9-Hibit cells were seeded into 384-well plate (cell density: 1.6×10^5 cells/well/50 uL medium) in DMEM medium according to the plate map below and were incubated overnight at 37° C. and 5% CO2. • Note: Cell Cultured Medium: 90% DMEM+10% FBS+1% Penicillin-Streptomycin Liquid
• 1. Test compounds were dissolved at 3 mM DMSO stock solution. Transferred 45 uL of stock solution to a 384 pp-plate. Perform 3-fold, 10-point dilution via transferring 15 uL compound into 30 uL DMSO by using TECAN liquid handler. • 2. The plates were spinned at room temperature at 1,000 RPM for 1 minute. • 3. Transferred 50 nL of diluted compound from compound source plate into the cell plate by Echo. • 4. After compound treatment for 6 hours, removed the plate from incubators and equilibrated at room temperature for 15 minutes. Prepared the HiBit reagent consists of the following ratios: 10 mL of Nano-Glo®-HiBiT Lytic Buffer, 200 uL of Nano-Glo®-HiBiT Lytic Substrate and 100 uL of LgBiT Protein, mixed thoroughly. Added 20 uL of HiBit reagent into each well and spinned the plates at room temperature at 1,000 RPM for 1 minute to be detected. Plates were then shaken at 600 RPM at room temperature for 20 minutes, and read by EnVision. • 5. The inhibition activity was calculated following the formula below:
[formula] • Note: Where HC was obtained from cells treated with 0.1% DMSO only; LC was obtained from culture medium only. • 6. The ABS DC50 was calculated by fitting the Curve using Xlfit (v5.3.1.3), equation 201: […]

CDK2 = biological target: T2, CDK2 (Homo sapiens, UniProt P24941); experiment: HiBit Assay Protocol for CDK2 (HIBIT protein quantification, degradation); conditions: HEK293-CDK2-Hibit cells, compound treatment for 6 hours; for DC50: ABS DC50
T2 construct: host or cells: HEK293-CDK2-Hibit
Protocol: HiBit Assay Protocol for CDK2
• 1. The culture medium for HEK293-CDK2-Hibit cells was prepared using DMEM with 10% FBS. • 2. Cells were cultivated in T-75 flasks in a cell culture incubator set at 37° C., 5% CO2, 95% relative humidity. Cells were allowed to reach 80-90% confluence before detaching and splitting. • 3. Cultivated cells were rinsed in T-75 flasks with 5 mL PBS. Aspirate off Added was 1.5 mL trypsin, and the cells were incubated at 37° C. for approximately 5 minutes or until the cells detached and floated. • 4. Trypsin was inactivated by adding excess serum containing medium. • 5. Cells were harvested from flask into cell culture medium and then the cell number was counted. HEK293-CDK2-Hibit cells were seeded into 384-well plate (cell density: 1.6×10^5 cells/well/50 uL medium) in DMEM medium according to the plate map below and incubated overnight at 37° C. and 5% CO2. • Note: Cell Cultured Medium: 90% DMEM+10% FBS+1% Penicillin-Streptomycin Liquid
(§1) • 1. Test compounds were dissolved at 10 mM DMS stock solution. 45 uL of stock solution was transferred to a 384 pp-plate. A 3-fold, 10-point dilution was performed via transferring 15 uL compound into 30 uL DMSO by using TECAN liquid handler. • 2. The plates were spinned at room temperature at 1,000 RPM for 1 minute. • 3. 50 nL of diluted compound was transferred from compound source plate into the cell plate by Echo. • 4. After compound treatment for 6 hours, the plate was removed from incubators and equilibrated at room temperature for 15 minutes. The HiBit reagent was prepared, consisting of the following ratios: 10 mL of Nano-Glo®-HiBiT Lytic Buffer, 200 μL of Nano-Glo®-HiBiT Lytic Substrate and 100 uL of LgBiT Protein, mixed thoroughly. 20 μL of HiBit reagent was added into each well and the plates were spinned at room temperature at 1,000 RPM for 1 minute to be detected. Then the plates were shaken at 600 RPM at room temperature for 20 minutes, and read by EnVision. • 5. The inhibition activity was calculated following the formula below:
(§2) [formula] • Note: Where HC is obtained from cells treated with […] only; LC is obtained from culture medium only. • 6. ABS DC50 was calculated by fitting the Curve using Xlfit (v5.3.1.3), equation 201: […]

CCNE1 = biological target: T3, CCNE1 (Homo sapiens, UniProt P24864); experiment: HiBit Assay Protocol for CCNE1 (HIBIT protein quantification, degradation); conditions: HEK293-CCNE1-Hibit cells, compound treatment for 6 hours
T3 construct: host or cells: HEK293-CCNE1-Hibit
T3 sequence (P24864 whole entry): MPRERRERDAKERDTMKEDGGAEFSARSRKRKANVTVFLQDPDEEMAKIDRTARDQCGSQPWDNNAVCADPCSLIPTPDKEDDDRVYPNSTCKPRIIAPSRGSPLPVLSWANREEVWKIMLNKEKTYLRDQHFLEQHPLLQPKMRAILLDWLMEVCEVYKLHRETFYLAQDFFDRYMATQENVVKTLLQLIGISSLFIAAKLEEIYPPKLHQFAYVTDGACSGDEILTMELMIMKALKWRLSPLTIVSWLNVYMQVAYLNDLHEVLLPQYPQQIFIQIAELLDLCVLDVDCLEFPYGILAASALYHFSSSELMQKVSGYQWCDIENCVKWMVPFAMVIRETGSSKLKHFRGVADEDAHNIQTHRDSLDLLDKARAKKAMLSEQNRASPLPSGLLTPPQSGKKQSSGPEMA
Protocol: HiBit Assay Protocol for CCNE1
• 1. The culture medium for HEK293-CCNE1-Hibit cell was prepared using EMEM with […]. • 2. Cells were cultivated in T-75 flasks in a cell culture incubator set at 37° C., 5% CO2, 95% relative humidity. Cells were allowed to reach 80-90% confluence before detaching and splitting. • 3. Cultivated cells were rinsed in T-75 flasks with 5 mL PBS. Aspirate off Added was 1.5 mL trypsin, and the cells were incubated at 37° C. for approximately 5 minutes or until the cells detached and floated. • 4. Trypsin was inactivated by adding excess serum containing medium. • 5. Cells were harvested from flask into cell culture medium and then the cell number was counted. HEK293-CCNE1-Hibit cell were seeded into 384-well plate (cell density: 1.6×10^5 cells/well/50 uL medium) in EMEM medium according to the plate map below and incubated overnight at 37° C. and […]. • Note: Cell Cultured Medium: 90% EMEM+10% FBS+1% Penicillin-Streptomycin Liquid
as §1, with “mM DMSO” for “mM DMS”, “45 μL” for “45 uL”, “100 μL” for “100 uL”, “Protein, mix” for “Protein, mixed”
as §2

T1 sequence (P50750 whole entry): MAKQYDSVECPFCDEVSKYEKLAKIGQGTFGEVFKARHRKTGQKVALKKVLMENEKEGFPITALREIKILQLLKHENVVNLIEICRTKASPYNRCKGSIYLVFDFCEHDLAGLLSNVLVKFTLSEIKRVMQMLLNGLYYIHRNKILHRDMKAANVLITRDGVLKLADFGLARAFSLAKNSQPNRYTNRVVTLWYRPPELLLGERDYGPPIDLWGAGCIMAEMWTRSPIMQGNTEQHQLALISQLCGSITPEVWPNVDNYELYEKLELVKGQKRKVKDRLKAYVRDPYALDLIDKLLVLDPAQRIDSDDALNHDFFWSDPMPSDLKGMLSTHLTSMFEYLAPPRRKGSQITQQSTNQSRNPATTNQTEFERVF

| CDK9 HIBIT Protein Quantification Maximum (CDK9) | CDK2 HIBIT Protein Quantification Maximum (CDK2) | DC50 (CDK2) | CCNE1 HIBIT Protein Quantification Maximum (CCNE1) | Dmax (CDK9; 6 h) | DC50 (CDK9; ABS DC50) | SMILES | Dmax (CDK9) |
| --- | --- | --- | --- | --- | --- | --- | --- |
| 23% | 88% | 5.66 nM | 47% |  |  | CC(c1cc(S(=O)(=O)N2CC[C@H](Nc3ncc4c(n3)N([C@@H]3CCC[C@@H](O)C3)C(=O)C43CC3)[C@H](F)C2)ccc1F)N1CCC(c2ccc3c(N4CCC(=O)NC4=O)nn(C)c3c2)CC1 (single isomer, unassigned) [Compound 201, 1-(6-{1-[(1R*)-1-{2-Fluoro-5-[(3R,4S)-3-fluoro-4-{7′-[(1R,3R)-3-hydroxycyclohexyl]-6′-oxospiro[cyclopropane-1,5′-pyrrolo[2,3-d]pyrimidin]-2′-ylamino}piperidin-1-ylsulfonyl]phenyl}ethyl]piperidin-4-yl}-1-methylindazol-3-yl)-1,3-diazinane-2,4-dione] |  |
|  | 88% | 10.9 nM | 37% | 20% |  | CC(C)[C@H]1CN([C@@H](C)c2cccc(S(=O)(=O)N3CC[C@H](Nc4ncc5c(n4)N([C@@H]4CCC[C@@H](O)C4)C(=O)C54CC4)[C@H](F)C3)c2)CCN1c1ccc2c(N3CCC(=O)NC3=O)nn(C)c2c1 (single isomer, unassigned) [Compound 202] |  |
|  | 61% | 9.23 nM | 26% | 14% |  | O=C1CCC(N2Cc3cc(N4CCN(C5CN(c6cccc(S(=O)(=O)N7CCC(Nc8ncc9c(n8)N([C@H]8CCC[C@H](O)C8)C(=O)C98CC8)CC7)c6)C5)CC4)ccc3C2=O)C(=O)N1 (stereo in doubt) [Compound 133, 3-[5-(4-{1-[3-(4-{7′-[(1S,3S)-3-Hydroxycyclohexyl]-6′-oxospiro[cyclopropane-1,5′-pyrrolo[2,3-d]pyrimidin]-2′-ylamino}piperidin-1-ylsulfonyl)phenyl]azetidin-3-yl}piperazin-1-yl)-1-oxo-3H-isoindol-2-yl]piperidine-2,6-dione] |  |
|  | 85% | 10.2 nM | 34% | 18% |  | CC(C)[C@H]1CN([C@H](C)c2cccc(S(=O)(=O)N3CC[C@H](Nc4ncc5c(n4)N([C@@H]4CCC[C@@H](O)C4)C(=O)C54CC4)[C@H](F)C3)c2)CCN1c1ccc2c(N3CCC(=O)NC3=O)nn(C)c2c1 (stereo in doubt) [Compound 203] |  |
|  | 27% |  | 15% | -3% |  | CC1CCCC1N1C(=O)C2(CC2)c2cnc(NC3CCN(S(=O)(=O)N4CC5(CCN(C(=O)Cc6cccc7c6n(C)c(=O)n7C6CCC(=O)NC6=O)CC5)C4)CC3)nc21 (stereo not shown) [Compound 15] |  |
|  | 49% |  | 17% | 57% | 3.67 nM | CC1CCCC1N1C(=O)C2(CC2)c2cnc(NC3CCN(S(=O)(=O)N4CC5CN(C(=O)CCc6cccc7c6n(C)c(=O)n7C6CCC(=O)NC6=O)CC5C4)CC3)nc21 (stereo not shown) [Compound 16] |  |
|  | 54% | 17 nM | 26% | 26% |  | CC1CCCC1N1C(=O)C2(CC2)c2cnc(NC3CCN(S(=O)(=O)N4CCC5(CCCN5C(=O)CCc5cccc6c5n(C)c(=O)n6C5CCC(=O)NC5=O)C4)CC3)nc21 (stereo not shown) [Compound 17] |  |
|  | 14% |  |  | 4% |  | CC1CCCC1N1C(=O)C2(CC2)c2cnc(NC3CCN(S(=O)(=O)N4CC5(CCN(C(=O)Cc6ccc7c(c6)n(C)c(=O)n7C6CCC(=O)NC6=O)CC5)C4)CC3)nc21 (stereo not shown) [Compound 54] |  |
|  | 31% |  |  | 15% |  | CC1CCCC1N1C(=O)C2(CC2)c2cnc(NC3CCN(S(=O)(=O)N4CC5C4CCN5C(=O)CCCCc4cccc5c4n(C)c(=O)n5C4CCC(=O)NC4=O)CC3)nc21 (stereo not shown) [Compound 98] |  |
|  | 23% |  |  | 7% |  | CC1CCCC1N1C(=O)C2(CC2)c2cnc(NC3CCN(S(=O)(=O)C4CCCN(C(=O)CCCCc5ccc6c(c5)n(C)c(=O)n6C5CCC(=O)NC5=O)C4)CC3)nc21 (stereo not shown) [Compound 115] |  |
|  | 88% | 12.1 nM | 40% |  |  | C[C@@H](c1cc(S(=O)(=O)N2CC[C@H](Nc3ncc4c(n3)N([C@@H]3CCC[C@@H](O)C3)C(=O)C43CC3)[C@H](F)C2)ccc1F)N1CCN(c2ccc3c(N4CCC(=O)NC4=O)nn(C)c3c2)CC1 [Compound 211] |  |

| SMILES | CDK9 HIBIT Protein Quantification Maximum (CDK9) | CDK2 HIBIT Protein Quantification Maximum (CDK2) | DC50 (CDK2) | CCNE1 HIBIT Protein Quantification Maximum (CCNE1) | Dmax (CDK9; 6 h) | DC50 (CDK9; ABS DC50) | Dmax (CDK9) |
| --- | --- | --- | --- | --- | --- | --- | --- |
| Cn1nc(N2CCC(=O)NC2=O)c2ccc(C3CCN(Cc4cncc(S(=O)(=O)N5CCC(Nc6ncc7c(n6)N([C@H]6CCC[C@H](O)C6)C(=O)C76CC6)CC5)c4)CC3)cc21 (stereo in doubt) [Compound 161, 1-[6-(1-{[5-(4-{7′-[(1S,3S)-3-Hydroxycyclohexyl]-6′-oxospiro[cyclopropane-1,5′-pyrrolo[2,3-d]pyrimidin]-2′-ylamino}piperidin-1-ylsulfonyl)pyridin-3-yl]methyl}piperidin-4-yl)-1-methylindazol-3-yl]-1,3-diazinane-2,4-dione] |  | 79% | 6.06 nM | 45% |  |  | 17% |

Reference: patent publication US20260070917A1, “CYCLIN DEPENDENT KINASE DEGRADERS AND METHODS OF USE THEREOF” (Differentiated Therapeutics Inc, priority 2023, published 2026)
